Experimental data from the supplement of paper PMC11061612.

Assays:
[1] = test system: CPC-N (Small Cell Lung Carcinoma); assay: combination Emax (second highest fraction inhibited in the dose matrix, 72 h); higher = more inhibition; extreme values may be limits of the assay
Outline: (§1)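 After 24 hours at 37°C and 5% CO2 in 1536-well plates, cells in DMEM/F12 or RPMI plus 10% FBS received two-drug dose matrices for 72 hours. Viability came from CellTiter-Glo 2.0 luminescence and was scaled as inhibition, anchored at 0 by vehicle wells and at 1 by blank wells. Combination Emax is taken as the second-highest inhibition in the matrix, and Bliss excess as the observed combination effect less EA + EB − EA·EB, with EA and EB the single-agent effects.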

[2] = test system: Raji (Burkitt's Lymphoma); assay: as above
Outline: as §1

[3] = test system: SK-N-SH (Neuroblastoma); assay: as above
Outline: as §1

[4] = test system: CL-11 (Colorectal Carcinoma); assay: as above
Outline: as §1

[5] = test system: SNU-C2B (Colorectal Carcinoma); assay: as above
Outline: as §1

[6] = test system: HT-1080 (Other Solid Carcinomas); assay: as above
Outline: as §1

[7] = test system: DBTRG-05MG (Glioblastoma); assay: as above
Outline: as §1

[8] = test system: SiHa (Cervical Carcinoma); assay: as above
Outline: as §1

[9] = test system: OAW-28 (Ovarian Carcinoma); assay: as above
Outline: as §1

[10] = test system: NCI-H1876 (Small Cell Lung Carcinoma); assay: as above
Outline: as §1

[11] = test system: OVCAR-3 (Ovarian Carcinoma); assay: as above
Outline: as §1

[12] = test system: NCI-H1341 (Small Cell Lung Carcinoma); assay: as above
Outline: as §1

[13] = test system: T84 (Colorectal Carcinoma); assay: as above
Outline: as §1

[14] = test system: SAT (Head and Neck Carcinoma); assay: as above
Outline: as §1

[15] = test system: C-33-A (Cervical Carcinoma); assay: as above
Outline: as §1

[16] = test system: LS-1034 (Colorectal Carcinoma); assay: as above
Outline: as §1

[17] = test system: MM1S (Plasma Cell Myeloma); assay: as above
Outline: as §1

[18] = test system: LCLC-103H (Non-Small Cell Lung Carcinoma); assay: Bliss excess, mean over the matrix (fraction); higher = more synergy
Outline: as §1

[19] = test system: SNU-423 (Hepatocellular Carcinoma); assay: as above
Outline: as §1

[20] = test system: NCI-H1341 (Small Cell Lung Carcinoma); assay: as above
Outline: as §1
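For Bliss excess, mean over the matrix in this document: after 72 h of two-drug dosing.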

SMILES | combination Emax [1] | combination Emax [2] | combination Emax [3] | combination Emax [4] | combination Emax [5] | combination Emax [6] | combination Emax [7] | combination Emax [8] | combination Emax [9] | combination Emax [10] | combination Emax [11] | combination Emax [12] | combination Emax [13] | combination Emax [14] | combination Emax [15] | combination Emax [16] | combination Emax [17] | Bliss excess [18] | Bliss excess [19] | Bliss excess [20]
C[C@@H]1COCCN1c1cc(C2([S@](C)(=N)=O)CC2)nc(-c2ccnc3[nH]ccc23)n1 [AZD6738] + O=C(c1cc(Cc2n[nH]c(=O)c3ccccc23)ccc1F)N1CCN(C(=O)C2CC2)CC1 [Olaparib] (first compound max 10 µM, 7x7, partner max 10 µM) | 0.912 | 0.855 | 0.929 | 0.758 | 0.69 | 0.45 | 0.239 | 0.228 | 0.396 | 0.945 | 0.555 | 0.755 | 0.672 | 0.371 | 0.89 | 0.56 | 0.642 | 0.0482 | -0.0005 | -0.0105
Cc1c2c(nn1C)CSCc1cc(n(C)n1)CSc1cc(c3ccccc3c1)OCCCc1c(C(=O)O)n(C)c3c-2c(Cl)ccc13 [AZD5991] + Cn1cnc2c(F)c(Nc3ccc(Br)cc3Cl)c(C(=O)NOCCO)cc21 [Selumetinib] (first compound max 1 µM, 7x7, partner max 3 µM) | 0.237 | 0.756 | 0.414 | 0.525 | 0.356 | 0.428 | 0.344 | 0.305 | 0.352 | 0.748 | 0.218 | 0.496 | 0.406 | 0.803 | 0.365 | 0.587 | 0.998 | -0.0774 | -0.0599 | 0.0693
Cn1cnc2c(F)c(Nc3ccc(Br)cc3Cl)c(C(=O)NOCCO)cc21 [Selumetinib] + CC(C)n1c(=O)n(C)c2cnc3cc(F)c(-c4ccc(OCCCN5CCCCC5)nc4)cc3c21 [AZD1390] (first compound max 10 µM, 7x7, partner max 0.3 µM) | 0.0753 | 0.233 | 0.146 | 0.691 | 0.29 | 0.261 | 0.315 | 0.156 | 0.332 | 0.272 | 0.048 | 0.163 | 0.397 | 0.47 | 0.264 | 0.689 | 0.264 | -0.0154 | -0.0026 | -0.0071
CN(CCO)CC[C@H](CSc1ccccc1)Nc1ccc(S(=O)(=O)NC(=O)c2ccc(N3CCC([C@@H](O)c4ccccc4-c4ccc(Cl)cc4)CC3)cc2)cc1S(=O)(=O)C(F)(F)F [AZD4320] + C1CN(CCC1(C(=O)N[C@@H](CCO)C2=CC=C(C=C2)Cl)N)C3=NC=NC4=C3C=CN4 [Capivasertib] (first compound max 1 µM, 7x7, partner max 3 µM) | 0.945 | 0.177 | 0.707 | 0.147 | 0.201 | 0.5 | 0.619 | 0.171 | 0.899 | 0.955 | 0.147 | 0.974 | 0.136 | 0.418 | 0.518 | 0.275 | 1 | -0.0548 | -0.0338 | -0.0203
CC(=O)c1c(C)c2cnc(Nc3ccc(N4CCNCC4)cn3)nc2n(C2CCCC2)c1=O [Palbociclib] + CC1(C)CCC(CN2CCN(c3ccc(C(=O)NS(=O)(=O)c4ccc(NCC5CCOCC5)c([N+](=O)[O-])c4)c(Oc4cnc5[nH]ccc5c4)c3)CC2)=C(c2ccc(Cl)cc2)C1 [Venetoclax] (first compound max 10 µM, 7x7, partner max 1 µM) | 0.106 | 0.436 | 0.465 | 0.298 | 0.152 | 0.143 | 0.114 | 0.123 | 0.173 | 0.224 | 0.0774 | 0.259 | 0.079 | 0.353 | 0.354 | 0.559 | 0.308 | -0.0083 | -0.034 | 0.0245
Cc1c2c(nn1C)CSCc1cc(n(C)n1)CSc1cc(c3ccccc3c1)OCCCc1c(C(=O)O)n(C)c3c-2c(Cl)ccc13 [AZD5991] + CC1(C)CCC(CN2CCN(c3ccc(C(=O)NS(=O)(=O)c4ccc(NCC5CCOCC5)c([N+](=O)[O-])c4)c(Oc4cnc5[nH]ccc5c4)c3)CC2)=C(c2ccc(Cl)cc2)C1 [Venetoclax] (first compound max 1 µM, 7x7, partner max 1 µM) | 0.289 | 0.682 | 0.921 | 0.137 | 0.201 | 0.188 | 0.158 | 0.137 | 0.687 | 0.881 | 0.171 | 0.634 | 0.142 | 0.703 | 0.484 | 0.152 | 0.99 | -0.0347 | -0.0736 | 0.132
CCc1c2c(nc3ccc(O)cc13)-c1cc3c(c(=O)n1C2)COC(=O)[C@]3(O)CC [SN-38] + CN(C)CCCOc1ccc(-c2ccc3ncc4c(c3c2)n(C2CCOCC2)c(=O)n4C)cn1 [AZD0156] (first compound max 0.3 µM, 7x7, partner max 1 µM) | 0.549 | 0.958 | 0.909 | 0.764 | 0.397 | 0.374 | 0.412 | 0.235 | 0.791 | 1 | 0.449 | 0.955 | 0.644 | 0.344 | 0.802 | 0.814 | 0.966 | 0.0263 | -0.0165 | -0.0226
CN(C)CCCOc1ccc(-c2ccc3ncc4c(c3c2)n(C2CCOCC2)c(=O)n4C)cn1 [AZD0156] + C=CCn1c(=O)c2cnc(Nc3ccc(N4CCN(C)CC4)cc3)nc2n1-c1cccc(C(C)(C)O)n1 [AZD1775] (first compound max 1 µM, partner max 1 µM) | 0.972 | 0.695 | 0.799 | 0.545 | 0.55 | 0.331 | 0.175 | 0.143 | 0.27 | 0.982 | 0.32 | 0.675 | 0.556 | 0.427 | 0.894 | 0.289 | 0.732 | -0.0079 | -0.0554 | -0.0201
Cc1cc2ncnn2cc1Nc1ncc2c(n1)n(C1CCOCC1)c(=O)n2C [AZD7648] + CN(C)CCCOc1ccc(-c2ccc3ncc4c(c3c2)n(C2CCOCC2)c(=O)n4C)cn1 [AZD0156] (first compound max 10 µM, 7x7, partner max 1 µM) | 0.368 | 0.227 | 0.366 | 0.255 | 0.311 | 0.151 | 0.192 | 0.305 | 0.187 | 0.317 | 0.116 | 0.34 | 0.214 | 0.378 | 0.372 | 0.239 | 0.389 | -0.0422 | -0.0133 | 0.0157
Cn1cnc2c(F)c(Nc3ccc(Br)cc3Cl)c(C(=O)NOCCO)cc21 [Selumetinib] + CCN(CCO)CCCOc1ccc2c(Nc3cc(CC(=O)Nc4cccc(F)c4)[nH]n3)ncnc2c1 [AZD2811] (first compound max 10 µM, 7x7, partner max 1 µM) | 0.717 | 0.0936 | 0.289 | 0.709 | 0.335 | 0.387 | 0.282 | 0.22 | 0.408 | 0.792 | 0.182 | 0.271 | 0.312 | 0.604 | 0.324 | 0.671 | 0.283 | -0.0104 | -0.0263 | 0.0264
NC1(C(=O)N[C@@H](CCO)c2ccc(Cl)cc2)CCN(c2ncnc3[nH]ccc23)CC1 [Capivasertib] + C[C@@H]1COCCN1C2=NC(=NC(=C2)C3(CC3)[S@](=N)(=O)C)C4=C5C=CNC5=NC=C4 [AZD6738] (first compound max 10 µM, 7x7, partner max 10 µM) | 0.894 | 0.724 | 0.872 | 0.718 | 0.647 | 0.435 | 0.372 | 0.413 | 0.515 | 0.934 | 0.461 | 0.928 | 0.68 | 0.579 | 0.946 | 0.746 | 0.99 | -0.0607 | -0.0139 | -0.0251
NC1(C(=O)N[C@@H](CCO)c2ccc(Cl)cc2)CCN(c2ncnc3[nH]ccc23)CC1 [Capivasertib] + CC(=O)c1c(C)c2cnc(Nc3ccc(N4CCNCC4)cn3)nc2n(C2CCCC2)c1=O [Palbociclib] (first compound max 10 µM, 7x7, partner max 10 µM) | 0.382 | 0.491 | 0.454 | 0.358 | 0.424 | 0.101 | 0.23 | 0.252 | 0.191 | 0.253 | 0.379 | 0.506 | 0.267 | 0.662 | 0.679 | 0.499 | 0.981 | -0.0146 | -0.0019 | -0.0345
COc1cccc(OCCCN)c1-c1cc(Nc2cnc(C#N)cn2)n[nH]1 [Prexasertib] + Cc1cc2ncnn2cc1Nc1ncc2c(n1)n(C1CCOCC1)c(=O)n2C [AZD7648] (first compound max 1 µM, 7x7, partner max 10 µM) | 1 | 0.97 | 0.844 | 0.788 | 0.706 | 0.557 | 0.315 | 0.386 | 0.462 | 0.988 | 0.784 | 0.919 | 0.785 | 0.573 | 0.882 | 0.685 | 0.858 | -0.0791 | -0.0244 | 0.0194
